Reference: US20080167384A1, “Use of Zeaxanthin For the Treatment of Diseases of the Peripheral Retina” (priority 2005, published 2008)

Experiment: Trial of zeaxanthin supplementation: macular pigment density monitored by heterochromatic flicker photometry (HCFP)
Type: in vivo
Settings: Zeaxanthin 20 mg/day, 6-12 months
Protocol: The usefulness of zeaxanthin for the purposes of the present invention can be seen from the results of a trial with a duration of 6-12 months carried out with 46 subjects which were randomized to two treatment groups: Zeaxanthin, 20 mg/day (n=23), and Placebo (n=23). Macular pigment density (MPD) during this trial was monitored monthly using heterochromatic flicker photometry (HCFP) by independently measuring luminances at central and eccentric (5°=reference) locations. MPD is then calculated by subtracting the luminance at the reference (=eccentric) location from the luminance at the retinal centre.

## CC1=C(/C=C/C(C)=C/C=C/C(C)=C/C=C/C=C(C)/C=C/C=C(C)/C=C/C2=C(C)C[C@@H](O)CC2(C)C)C(C)(C)C[C@H](O)C1 [zeaxanthin]
HCFP, eccentric (5°) reference location
  rise of luminance at the eccentric reference location: approximately 8%
HCFP, retinal centre
  rise of luminance at the central location: approximately 8%
Actual central luminances minus pre-supplementation eccentric reference luminance
  increase of macular pigment density (MPD) computed with the pre-supplementation eccentric reference luminance: about 11%
